From patent US9737522B2, “NMDA receptor modulators and uses related thereto” (EMORY UNIVERSITY, priority 2012, dated 2017)

How the values were obtained:
Assay type in all cases: cell-based
[1] = target: recombinant rat GluN1/GluN2B receptors (NR2B) (Rattus norvegicus (Rat), UniProt P35439+Q00960); test: Two-electrode voltage-clamp recordings, Xenopus laevis oocytes, NR2B; conditions: current in the absence of compound = 100%, 100 μM glutamate plus 30 μM glycine, read-out: NR2B response
Protocol: (§1) Two-electrode voltage-clamp recordings were made from Xenopus laevis oocytes expressing recombinant rat GluN1/GluN2A, GluN1/GluN2B, GluN1/GluN2C, GluN1/GluN2D, GluA1, or GluK2 receptors following injection of 5-10 ng of cRNA synthesized according to manufacturers' protocols (Ambin, mMessage, mMachine). cDNAs used were rat GluN1-1a (GenBank accession numbers U11418 and U08261; hereafter GluN1), GluN2A (D13211), GluN2B (U11419), GluN2C (M91563), GluN2D (L31611), GluA1 (X17184), GluK2 (Z11548). The current under voltage-clamp was recorded during perfusion with recording solution containing (in mM) 90 NaCl, 1.0 KCl, 0.5 BaCl2, 0.005 EDTA, and 10 HEPES at pH 7.4 (23° C.). Glass micropipettes had resistances of 0.3-1.0 MS2 and were filled with 3.0 M KCl. The membrane potential was clamped at −40 mV during the experiment. Recordings were digitized at 10 Hz and analyzed off line. 20 mM stock solutions of test compounds in 100% DMSO were made and diluted to obtain the final concentration; final DMSO content was 0.05-0.5% (vol/vol). Oocytes expressing GluK2 homomeric receptors were first treated with 10 μM concanavalin A (10 minutes). NMDA receptor responses were obtained by challenging oocytes with 100 μM glutamate plus 30 μM glycine; GluA1 and GluK2 receptors responses were recorded during application of 100 μM glutamate. We recorded the response to 5-7 concentrations of test drug co-applied with glutamate and glycine in 5 or more oocytes obtained from two different frogs. […] N is the Hill slope and maximum is the response predicted for saturating concentration of potentiator.

[2] = target: recombinant rat GluN1/GluN2D receptors (NR2D) (Rattus norvegicus (Rat), UniProt P35439+Q62645); test: Two-electrode voltage-clamp recordings, Xenopus laevis oocytes, NR2D; conditions: current in the absence of compound = 100%, 100 μM glutamate plus 30 μM glycine, read-out: NR2D response
Sequence of recombinant rat GluN1/GluN2D receptors (NR2D) (Q62645 28-1323, other chains not shown): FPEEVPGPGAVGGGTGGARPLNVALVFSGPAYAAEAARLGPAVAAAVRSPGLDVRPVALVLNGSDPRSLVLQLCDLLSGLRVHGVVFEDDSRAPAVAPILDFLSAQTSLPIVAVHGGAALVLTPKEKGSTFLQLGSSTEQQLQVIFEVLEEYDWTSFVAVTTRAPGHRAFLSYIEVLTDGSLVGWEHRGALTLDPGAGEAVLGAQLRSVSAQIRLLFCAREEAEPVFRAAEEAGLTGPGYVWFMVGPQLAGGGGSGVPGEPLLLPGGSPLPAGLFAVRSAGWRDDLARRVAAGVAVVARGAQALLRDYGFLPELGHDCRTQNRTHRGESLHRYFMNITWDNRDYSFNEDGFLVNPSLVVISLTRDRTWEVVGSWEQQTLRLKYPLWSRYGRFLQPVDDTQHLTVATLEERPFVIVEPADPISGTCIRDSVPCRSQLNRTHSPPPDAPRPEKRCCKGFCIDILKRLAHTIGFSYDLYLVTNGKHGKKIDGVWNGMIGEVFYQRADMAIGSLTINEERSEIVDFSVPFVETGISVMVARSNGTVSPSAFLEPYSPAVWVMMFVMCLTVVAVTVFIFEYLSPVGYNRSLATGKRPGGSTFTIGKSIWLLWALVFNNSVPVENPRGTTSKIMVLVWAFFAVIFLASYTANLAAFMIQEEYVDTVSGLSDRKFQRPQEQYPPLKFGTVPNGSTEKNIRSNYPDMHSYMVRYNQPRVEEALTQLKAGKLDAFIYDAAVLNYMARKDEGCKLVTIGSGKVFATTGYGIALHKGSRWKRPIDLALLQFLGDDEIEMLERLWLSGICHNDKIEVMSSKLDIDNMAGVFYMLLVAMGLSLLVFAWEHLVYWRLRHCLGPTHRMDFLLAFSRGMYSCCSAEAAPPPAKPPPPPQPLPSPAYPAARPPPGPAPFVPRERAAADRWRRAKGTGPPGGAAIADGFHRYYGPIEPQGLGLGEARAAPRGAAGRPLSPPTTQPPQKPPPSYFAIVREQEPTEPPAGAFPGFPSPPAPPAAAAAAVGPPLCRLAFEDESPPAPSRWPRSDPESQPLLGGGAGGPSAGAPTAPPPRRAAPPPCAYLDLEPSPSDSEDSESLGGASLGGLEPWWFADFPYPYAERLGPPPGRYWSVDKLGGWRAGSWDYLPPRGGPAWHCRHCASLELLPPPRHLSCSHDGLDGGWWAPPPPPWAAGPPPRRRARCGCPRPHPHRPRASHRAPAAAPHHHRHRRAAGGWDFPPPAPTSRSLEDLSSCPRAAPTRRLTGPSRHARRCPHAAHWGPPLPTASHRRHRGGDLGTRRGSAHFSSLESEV
Protocol: as §1

[3] = target: recombinant rat GluN1/GluN2A receptors (NR2A) (Rattus norvegicus (Rat), UniProt P35439+Q00959); test: Two-electrode voltage-clamp recordings, Xenopus laevis oocytes, NR2A; conditions: current in the absence of compound = 100%, 100 μM glutamate plus 30 μM glycine, read-out: NR2A response
Sequence of recombinant rat GluN1/GluN2A receptors (NR2A) (Q00959 23-1464, other chains not shown): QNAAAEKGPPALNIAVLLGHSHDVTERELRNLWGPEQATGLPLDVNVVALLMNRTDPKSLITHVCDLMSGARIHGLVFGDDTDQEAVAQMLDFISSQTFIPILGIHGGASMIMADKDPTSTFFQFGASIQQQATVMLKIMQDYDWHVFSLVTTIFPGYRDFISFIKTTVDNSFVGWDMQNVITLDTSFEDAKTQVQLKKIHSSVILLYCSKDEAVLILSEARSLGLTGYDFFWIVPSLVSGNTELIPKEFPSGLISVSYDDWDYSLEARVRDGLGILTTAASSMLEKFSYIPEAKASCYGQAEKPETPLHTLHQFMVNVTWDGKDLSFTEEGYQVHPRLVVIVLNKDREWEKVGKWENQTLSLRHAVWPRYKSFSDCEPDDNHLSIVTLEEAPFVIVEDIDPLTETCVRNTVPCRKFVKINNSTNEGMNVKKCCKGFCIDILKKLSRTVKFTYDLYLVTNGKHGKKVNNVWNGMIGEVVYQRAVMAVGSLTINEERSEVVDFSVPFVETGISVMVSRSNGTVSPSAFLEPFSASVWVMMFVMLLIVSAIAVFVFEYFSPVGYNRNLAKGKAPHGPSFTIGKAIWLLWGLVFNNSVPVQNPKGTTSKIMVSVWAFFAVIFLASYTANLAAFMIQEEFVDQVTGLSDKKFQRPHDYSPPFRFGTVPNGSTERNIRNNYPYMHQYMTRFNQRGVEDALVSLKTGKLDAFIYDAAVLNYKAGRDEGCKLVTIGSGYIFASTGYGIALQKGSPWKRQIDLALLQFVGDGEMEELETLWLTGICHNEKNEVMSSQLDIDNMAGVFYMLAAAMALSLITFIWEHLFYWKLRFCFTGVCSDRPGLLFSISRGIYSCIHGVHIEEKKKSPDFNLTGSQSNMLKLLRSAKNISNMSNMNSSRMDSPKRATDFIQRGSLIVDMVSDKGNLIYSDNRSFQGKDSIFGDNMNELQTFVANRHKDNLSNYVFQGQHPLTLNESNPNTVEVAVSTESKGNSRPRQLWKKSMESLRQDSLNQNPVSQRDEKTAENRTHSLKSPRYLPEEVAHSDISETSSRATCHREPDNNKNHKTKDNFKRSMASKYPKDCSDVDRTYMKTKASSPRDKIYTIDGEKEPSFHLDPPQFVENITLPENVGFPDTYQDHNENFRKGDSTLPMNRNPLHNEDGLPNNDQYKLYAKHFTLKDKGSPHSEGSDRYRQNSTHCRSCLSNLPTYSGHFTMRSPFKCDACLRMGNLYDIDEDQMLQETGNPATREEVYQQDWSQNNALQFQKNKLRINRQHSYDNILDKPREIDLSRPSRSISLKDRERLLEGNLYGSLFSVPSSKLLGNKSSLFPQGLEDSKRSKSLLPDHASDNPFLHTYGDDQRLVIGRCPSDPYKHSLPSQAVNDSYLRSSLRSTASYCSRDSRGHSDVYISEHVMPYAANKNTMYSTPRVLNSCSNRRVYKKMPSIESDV
Protocol: as §1

[4] = target: recombinant rat GluN1/GluN2C receptors (NR2C) (Rattus norvegicus (Rat), UniProt P35439+Q00961); test: Two-electrode voltage-clamp recordings, Xenopus laevis oocytes, NR2C; conditions: head prints IC50; method describes EC50 of potentiator
Protocol: as §1

[5] = target: recombinant rat GluN1/GluN2C receptors (NR2C) (Rattus norvegicus (Rat), UniProt Q00961); test: as above; conditions: at 100 uM; current in the absence of compound = 100%; 100 μM glutamate plus 30 μM glycine
Protocol: as §1

Sequence of recombinant rat GluN1/GluN2B receptors (NR2B) (Q00960 27-1482, other chains not shown): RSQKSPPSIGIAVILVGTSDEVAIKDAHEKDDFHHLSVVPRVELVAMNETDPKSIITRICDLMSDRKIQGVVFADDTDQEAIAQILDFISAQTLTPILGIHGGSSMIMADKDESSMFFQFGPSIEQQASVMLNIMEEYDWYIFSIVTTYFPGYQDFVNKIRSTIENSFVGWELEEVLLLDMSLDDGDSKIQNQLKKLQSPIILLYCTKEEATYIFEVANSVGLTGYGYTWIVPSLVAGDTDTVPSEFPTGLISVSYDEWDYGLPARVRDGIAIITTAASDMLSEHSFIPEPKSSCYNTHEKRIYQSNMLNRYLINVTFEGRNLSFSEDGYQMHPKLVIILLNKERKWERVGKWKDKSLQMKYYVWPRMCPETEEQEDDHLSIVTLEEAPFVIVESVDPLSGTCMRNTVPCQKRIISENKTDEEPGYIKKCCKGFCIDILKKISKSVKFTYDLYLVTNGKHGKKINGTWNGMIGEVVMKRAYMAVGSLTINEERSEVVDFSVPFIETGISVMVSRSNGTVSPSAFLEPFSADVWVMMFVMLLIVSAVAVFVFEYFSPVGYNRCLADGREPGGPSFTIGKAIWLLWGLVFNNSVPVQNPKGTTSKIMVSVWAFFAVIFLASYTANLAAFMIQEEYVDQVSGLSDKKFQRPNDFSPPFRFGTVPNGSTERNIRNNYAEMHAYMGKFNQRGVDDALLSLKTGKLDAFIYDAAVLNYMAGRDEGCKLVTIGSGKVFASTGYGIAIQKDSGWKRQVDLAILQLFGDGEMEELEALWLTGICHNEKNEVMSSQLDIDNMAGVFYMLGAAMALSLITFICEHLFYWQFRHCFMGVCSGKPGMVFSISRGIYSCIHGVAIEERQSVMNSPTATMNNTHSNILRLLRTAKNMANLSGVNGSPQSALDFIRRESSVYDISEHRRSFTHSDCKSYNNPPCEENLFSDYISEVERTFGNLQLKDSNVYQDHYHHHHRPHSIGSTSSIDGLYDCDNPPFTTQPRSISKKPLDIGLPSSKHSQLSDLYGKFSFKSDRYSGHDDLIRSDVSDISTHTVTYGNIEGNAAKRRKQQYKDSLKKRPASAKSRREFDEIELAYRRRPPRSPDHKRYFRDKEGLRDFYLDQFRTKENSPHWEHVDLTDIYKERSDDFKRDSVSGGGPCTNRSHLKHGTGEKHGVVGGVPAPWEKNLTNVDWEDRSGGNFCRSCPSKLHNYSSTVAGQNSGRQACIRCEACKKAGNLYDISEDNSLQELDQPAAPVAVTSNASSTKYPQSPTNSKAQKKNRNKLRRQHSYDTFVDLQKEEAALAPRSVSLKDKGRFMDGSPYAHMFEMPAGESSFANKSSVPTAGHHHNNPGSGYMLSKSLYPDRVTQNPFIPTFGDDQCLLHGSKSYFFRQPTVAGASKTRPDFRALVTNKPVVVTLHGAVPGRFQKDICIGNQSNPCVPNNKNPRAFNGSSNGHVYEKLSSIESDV

Row | SMILES | activity at 100 µM [1] | activity at 100 µM [2] | activity at 100 µM [3] | EC50 (potentiation) [4] | NR2C response [5]
1 | COC(=O)c1ccc(C2C(C(C)=O)=C(O)C(=O)N2CCc2c[nH]c3ccccc23)c(O)c1 (centres unmarked) | 77% | 79% | 102% | 15 µM | –
2 | CCOC(=O)c1ccc(C2C(C(C)=O)=C(O)C(=O)N2CCc2c[nH]c3ccccc23)cc1 (centres unmarked) | 75% | 79% | 96% | 15 µM | –
3 | CCOC(=O)c1ccc(C2C(C(C)=O)=C(O)C(=O)N2CCc2c(C)[nH]c3ccccc23)cc1 (centres unmarked) | 79% | 73% | 89% | 12 µM | –
4 | COC(=O)c1ccc(C2C(C(=O)c3ccncc3)=C(O)C(=O)N2CCc2ccncc2)cc1 (centres unmarked) | 94% | 95% | 103% | – | 97% response at 100 uM
5 | COC(=O)c1ccc(C2C(C(=O)c3ccncc3)=C(O)C(=O)N2CCc2c[nH]cn2)cc1 (centres unmarked) | 91% | 90% | 97% | – | 84% response at 100 uM
6 | O=C(C1=C(O)C(=O)N(CCc2c[nH]c3ccccc23)C1c1cccs1)c1cccnc1 (centres unmarked) | 71% | 73% | 43% | 12 µM | –
7 | COC(=O)c1ccc(C2C(C(C)=O)=C(O)C(=O)N2CCc2c[nH]c3ccccc23)c(OC)c1 (centres unmarked) | 79% | 99% | 99% | 20 µM | –

Further lines, results first:

Row | activity at 100 µM [1] | activity at 100 µM [2] | activity at 100 µM [3] | EC50 (potentiation) [4] | NR2C response [5] | SMILES
8 | 72% | 72% | 78% | 8 µM | – | COC(=O)c1ccc(C2C(C(=O)c3ccncc3)=C(O)C(=O)N2CCc2c[nH]c3ccccc23)cc1 (centres unmarked)
9 | 66% | 64% | 91% | 4 µM | – | COC(=O)c1ccc(C2C(C(=O)c3cccnc3)=C(O)C(=O)N2CCc2c[nH]c3cc(C)ccc23)cc1 (centres unmarked)
10 | 43% | 61% | 83% | 4 µM | – | COC(=O)c1ccc(C2C(C(=O)c3cccnc3)=C(O)C(=O)N2CCc2c[nH]c3cc(Cl)ccc23)cc1 (centres unmarked)
11 | 61% | 69% | 74% | 7 µM | – | CCOC(=O)c1ccc(C2C(C(=O)c3cccnc3)=C(O)C(=O)N2CCc2c[nH]c3cc(C)ccc23)cc1 (centres unmarked)
12 | 37% | 64% | 80% | 14 µM | – | COC(=O)c1ccc(C2C(C(=O)c3cccnc3)=C(O)C(=O)N2CCc2c[nH]c3cc(F)ccc23)cc1 (centres unmarked)
13 | – | – | – | 11 µM | – | COC(=O)c1ccc(C2C(C(=O)c3ccncc3)=C(O)C(=O)N2CCc2cccc3ccccc23)cc1 (centres unmarked)
14 | 72% | 115% | 68% | 26 µM | – | COC(=O)c1ccc(C2C(C(=O)c3ccccc3Cl)=C(O)C(=O)N2CCc2c[nH]c3ccccc23)cc1 (centres unmarked)
15 | – | – | 76% | 5 µM | – | COC(=O)c1ccc(C2C(C(=O)c3cccc(O)c3)=C(O)C(=O)N2CCc2c[nH]c3ccccc23)cc1 (centres unmarked)
16 | 77% | 73% | 99% | 9 µM | – | CCOC(=O)c1ccc(C2C(C(=O)c3ccncc3)=C(O)C(=O)N2CCc2c[nH]c3cc(C)ccc23)cc1 (centres unmarked)
